Assay: State of micro-crystalline/powder drug after supercritical CO2 sterilization with peracetic acid additive
Assay type: physicochemical
Settings: 1500 psi, 35° C., 180 minutes, Peracetic Acid 16 mL
Method: For these products, the input or flow of CO2 through valve 24 into the reactor pressure vessel 22 is regulated to 0.01 to 5 psi/second. Regulating the rate of pressurization is also intended to control mass flow (1000 mg/second) of CO2 into the reactor pressure vessel 22. In the initial fill, the valve 24 is opened and allowed to flow at the regulated rate using the ambient pressure of the CO2 supply from the gas cylinder 12. The CO2 supply pressure can range from 75 psi to approximately 900 psi or greater. Once the pressure in reactor pressure vessel 22 reaches equilibrium with the CO2 supply source pressure, the pumping of the CO2 using the carbon dioxide booster 16 begins. […] Once the reactor pressure vessel 22 reaches its operating pressure of 1500 psi, the process is allowed to continue through its normal path. Upon completion of the desired time period at the operating temperature and pressure, depressurization of the reactor pressure vessel 22 then occurs. […] Regulating the rate of depressurization is also intended to control of mass flow of CO2 out of the reactor pressure vessel 22. The rate of depressurization is controlled at this rate until the ambient pressure in the reactor pressure vessel 22 is zero or at equilibrium with the atmospheric pressure. Ambient conditions are generally zero psi and 25 degrees C. […]

State of the Corticosteroid drug after sterilization (look and feel of powder) (CO2 pressurization 5 psi/second, depressurization 50 psi/second): unchanged
State of the Corticosteroid drug after sterilization (look and feel of powder) (CO2 pressurization 75 psi/second (unrestricted), depressurization 100 psi/second): changed
Substance: Methyl-Prednisone

— patent publication US8012414B2, “Sterilization of drugs using supercritical carbon dioxide sterilant” (Novasterilis, priority 2007, dated 2011)
